Holding throughout (format): cell-based
Assay [1] has as its target T1, human Nav1.7 (hSCN9A) (Homo sapiens, UniProt Q15858).
T1 construct: expressed in transfected cells; host or cells: CHO
The experiment in a line: Electrophysiology assay for Navs, whole cell patch clamp, human Nav1.7 (hSCN9A) expressing CHO cells. Conditions: Kinact, read-out: activity (Ki) against Nav1.7, dissociation constant for the inactivated state. On the procedure:
Electrophysiology Assay for Navs
Whole cell patch clamp recording is used to assess the efficacy or selectivity of Na channel blocker on human Nav1.3 (hSCN3A) expressing HEK293 cells or human Nv1.7 (hSCN9A) expressing CHO cells. Human Nav1.3 expressing HEK293 cells are grown in growth media which contain: Dulbecco's […] (DMEM), 10% heat-inactivated fetal bovine serum (FBS) (Hyclone Laboratories Inc), 100 microgram/mL Penicillin/100 U/mL Streptomycin, 150 microgram/mL Zeocin, 3 microgram/mL Geneticin. Human Nav1.7 expressing CHO cells are grown in growth media which comprised: HAM/F-12, 9% heat-inactivated FBS (Hyclone Laboratories Inc) and 100 microgram/mL Penicillin/100 U/mL Streptomycin, 100 microgram/mL Hygromycin.
Na channel expressing cells are dissociated by 0.05% trypsine-EDTA, and then seeded on cover glass for 24 to 48 hr. […]
The normalized steady-state inactivation curve is constructed using 2 sec (for vehicle) or 60 sec (for drugs) conditioning pulse to different potentials followed immediately by the test pulse to −10 mV. […] The affinity of drugs to resting state of Na channels (Kresting or Kr) is assessed by 30 msec test pulse from a negative holding potential of −120 or −130 mV, where virtually all channels are in the resting state. Kr value is calculated by a conventional 1:1 binding model: Kresting(Kr)={[drug]Imax,drug/(Imax,control−Imax,drug)} […]

The target in assay [2] is T2, human Nav1.3 (Homo sapiens, UniProt Q9NY46).
T2 construct: expressed in transfected cells; host or cells: HEK293
T2 sequence (Q9NY46 whole entry): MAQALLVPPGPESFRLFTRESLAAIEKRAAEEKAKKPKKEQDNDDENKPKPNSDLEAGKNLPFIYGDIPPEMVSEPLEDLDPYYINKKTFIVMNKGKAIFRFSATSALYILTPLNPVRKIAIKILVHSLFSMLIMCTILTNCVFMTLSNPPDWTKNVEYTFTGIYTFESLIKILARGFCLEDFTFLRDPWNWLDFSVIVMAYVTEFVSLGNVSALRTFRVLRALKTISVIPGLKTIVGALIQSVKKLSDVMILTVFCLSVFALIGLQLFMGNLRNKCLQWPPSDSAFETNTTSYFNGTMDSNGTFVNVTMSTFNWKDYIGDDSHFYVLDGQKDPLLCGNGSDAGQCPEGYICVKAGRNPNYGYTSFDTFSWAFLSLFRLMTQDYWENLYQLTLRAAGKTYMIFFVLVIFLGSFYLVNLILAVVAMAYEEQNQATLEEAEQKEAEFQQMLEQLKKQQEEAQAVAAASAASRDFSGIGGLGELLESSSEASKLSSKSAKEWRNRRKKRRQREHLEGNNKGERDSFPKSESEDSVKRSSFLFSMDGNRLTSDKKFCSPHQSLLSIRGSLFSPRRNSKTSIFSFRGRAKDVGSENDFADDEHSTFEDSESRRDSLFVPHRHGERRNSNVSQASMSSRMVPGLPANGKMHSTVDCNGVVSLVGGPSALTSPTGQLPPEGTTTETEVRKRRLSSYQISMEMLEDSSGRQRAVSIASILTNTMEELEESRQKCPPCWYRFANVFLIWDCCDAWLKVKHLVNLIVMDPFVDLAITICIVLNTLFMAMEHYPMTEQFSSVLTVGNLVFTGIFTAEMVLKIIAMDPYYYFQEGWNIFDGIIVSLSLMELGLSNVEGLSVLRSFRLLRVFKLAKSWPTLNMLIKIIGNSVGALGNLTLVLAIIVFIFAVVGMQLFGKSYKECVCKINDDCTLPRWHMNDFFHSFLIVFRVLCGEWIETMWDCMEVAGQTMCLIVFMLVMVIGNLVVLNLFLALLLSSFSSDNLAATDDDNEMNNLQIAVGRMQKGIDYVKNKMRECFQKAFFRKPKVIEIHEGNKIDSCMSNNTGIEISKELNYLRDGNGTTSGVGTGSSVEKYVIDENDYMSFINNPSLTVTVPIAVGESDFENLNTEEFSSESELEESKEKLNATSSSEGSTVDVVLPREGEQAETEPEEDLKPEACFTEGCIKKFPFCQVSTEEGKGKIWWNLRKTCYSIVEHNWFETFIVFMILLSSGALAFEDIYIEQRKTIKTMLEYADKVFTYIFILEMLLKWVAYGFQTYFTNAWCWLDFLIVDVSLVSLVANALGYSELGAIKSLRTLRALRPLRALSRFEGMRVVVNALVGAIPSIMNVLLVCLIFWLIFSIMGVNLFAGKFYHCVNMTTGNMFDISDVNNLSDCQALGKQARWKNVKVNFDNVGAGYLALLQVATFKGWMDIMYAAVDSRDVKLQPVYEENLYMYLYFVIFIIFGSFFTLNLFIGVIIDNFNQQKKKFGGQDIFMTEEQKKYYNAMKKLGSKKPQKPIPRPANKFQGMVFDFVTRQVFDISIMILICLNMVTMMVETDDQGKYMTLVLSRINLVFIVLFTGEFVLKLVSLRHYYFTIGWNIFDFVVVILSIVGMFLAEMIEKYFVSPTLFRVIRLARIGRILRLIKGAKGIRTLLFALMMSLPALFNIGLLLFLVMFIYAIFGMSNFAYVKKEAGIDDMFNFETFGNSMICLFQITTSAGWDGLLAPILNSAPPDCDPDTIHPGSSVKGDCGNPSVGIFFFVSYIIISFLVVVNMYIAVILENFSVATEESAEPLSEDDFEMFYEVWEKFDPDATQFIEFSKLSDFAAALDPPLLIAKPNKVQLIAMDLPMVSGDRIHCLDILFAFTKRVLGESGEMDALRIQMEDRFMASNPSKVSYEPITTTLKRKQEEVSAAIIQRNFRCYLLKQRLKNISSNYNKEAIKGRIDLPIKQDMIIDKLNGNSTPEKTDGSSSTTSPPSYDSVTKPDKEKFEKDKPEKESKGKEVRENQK
As to the kind of experiment: FRET assay, human Nav1.3 channels (HEK293, EFS on FDSS). Particulars: read-out: activity (IC50) against Nav1.3. As for the experimental part:
(§1) The ability of the amide derivatives of the formula (I) to inhibit the Nav1.3, Nav1.7 and Nav1.5 channels is measured by Fluorescence Resonance Energy Transfer (FRET) assay and electrophysiology assay described below.
(§2) This screen is used to determine the effects of compounds on human Nav1.3, human Nav1.7, and human Nav1.5 channels, utilizing electrical field stimulation (EFS) system in 96-well plate format on FDSS (Hamamatsu Photonics) platform. The change of membrane potential is monitored with FRET dye pair, oxonol (DiSBAC2(3)) and coumarin (CC2-DMPE).
(§3) Each HEK293 cells expressing human Nav1.3 channels and HEK293 cells expressing human Nav1.5 channels are grown in T225 flasks, in a 5% CO2 humidified incubator to about 80% confluence. Media composition consists of Dulbecco's Modified Eagle Medium (high glucose), 10% FCS, 100 units/mL Penicillin, 100 microgram/mL Streptomycin and 500 microgram/mL Geneticin™. […]
(§4) The data are analyzed and reported as normalized ratios of intensities measured at […]. […]
(§5) This analysis is performed using a computerized specific program designed for FDSS generated data. Fluorescence ratio values are plotted using XLfit™ to determine an IC50 value for each compound.

In assay [3] the target is T3, human Nav1.7 (Homo sapiens, UniProt Q15858).
T3 construct: expressed in transfected cells; host or cells: CHO
T3 sequence (Q15858 whole entry): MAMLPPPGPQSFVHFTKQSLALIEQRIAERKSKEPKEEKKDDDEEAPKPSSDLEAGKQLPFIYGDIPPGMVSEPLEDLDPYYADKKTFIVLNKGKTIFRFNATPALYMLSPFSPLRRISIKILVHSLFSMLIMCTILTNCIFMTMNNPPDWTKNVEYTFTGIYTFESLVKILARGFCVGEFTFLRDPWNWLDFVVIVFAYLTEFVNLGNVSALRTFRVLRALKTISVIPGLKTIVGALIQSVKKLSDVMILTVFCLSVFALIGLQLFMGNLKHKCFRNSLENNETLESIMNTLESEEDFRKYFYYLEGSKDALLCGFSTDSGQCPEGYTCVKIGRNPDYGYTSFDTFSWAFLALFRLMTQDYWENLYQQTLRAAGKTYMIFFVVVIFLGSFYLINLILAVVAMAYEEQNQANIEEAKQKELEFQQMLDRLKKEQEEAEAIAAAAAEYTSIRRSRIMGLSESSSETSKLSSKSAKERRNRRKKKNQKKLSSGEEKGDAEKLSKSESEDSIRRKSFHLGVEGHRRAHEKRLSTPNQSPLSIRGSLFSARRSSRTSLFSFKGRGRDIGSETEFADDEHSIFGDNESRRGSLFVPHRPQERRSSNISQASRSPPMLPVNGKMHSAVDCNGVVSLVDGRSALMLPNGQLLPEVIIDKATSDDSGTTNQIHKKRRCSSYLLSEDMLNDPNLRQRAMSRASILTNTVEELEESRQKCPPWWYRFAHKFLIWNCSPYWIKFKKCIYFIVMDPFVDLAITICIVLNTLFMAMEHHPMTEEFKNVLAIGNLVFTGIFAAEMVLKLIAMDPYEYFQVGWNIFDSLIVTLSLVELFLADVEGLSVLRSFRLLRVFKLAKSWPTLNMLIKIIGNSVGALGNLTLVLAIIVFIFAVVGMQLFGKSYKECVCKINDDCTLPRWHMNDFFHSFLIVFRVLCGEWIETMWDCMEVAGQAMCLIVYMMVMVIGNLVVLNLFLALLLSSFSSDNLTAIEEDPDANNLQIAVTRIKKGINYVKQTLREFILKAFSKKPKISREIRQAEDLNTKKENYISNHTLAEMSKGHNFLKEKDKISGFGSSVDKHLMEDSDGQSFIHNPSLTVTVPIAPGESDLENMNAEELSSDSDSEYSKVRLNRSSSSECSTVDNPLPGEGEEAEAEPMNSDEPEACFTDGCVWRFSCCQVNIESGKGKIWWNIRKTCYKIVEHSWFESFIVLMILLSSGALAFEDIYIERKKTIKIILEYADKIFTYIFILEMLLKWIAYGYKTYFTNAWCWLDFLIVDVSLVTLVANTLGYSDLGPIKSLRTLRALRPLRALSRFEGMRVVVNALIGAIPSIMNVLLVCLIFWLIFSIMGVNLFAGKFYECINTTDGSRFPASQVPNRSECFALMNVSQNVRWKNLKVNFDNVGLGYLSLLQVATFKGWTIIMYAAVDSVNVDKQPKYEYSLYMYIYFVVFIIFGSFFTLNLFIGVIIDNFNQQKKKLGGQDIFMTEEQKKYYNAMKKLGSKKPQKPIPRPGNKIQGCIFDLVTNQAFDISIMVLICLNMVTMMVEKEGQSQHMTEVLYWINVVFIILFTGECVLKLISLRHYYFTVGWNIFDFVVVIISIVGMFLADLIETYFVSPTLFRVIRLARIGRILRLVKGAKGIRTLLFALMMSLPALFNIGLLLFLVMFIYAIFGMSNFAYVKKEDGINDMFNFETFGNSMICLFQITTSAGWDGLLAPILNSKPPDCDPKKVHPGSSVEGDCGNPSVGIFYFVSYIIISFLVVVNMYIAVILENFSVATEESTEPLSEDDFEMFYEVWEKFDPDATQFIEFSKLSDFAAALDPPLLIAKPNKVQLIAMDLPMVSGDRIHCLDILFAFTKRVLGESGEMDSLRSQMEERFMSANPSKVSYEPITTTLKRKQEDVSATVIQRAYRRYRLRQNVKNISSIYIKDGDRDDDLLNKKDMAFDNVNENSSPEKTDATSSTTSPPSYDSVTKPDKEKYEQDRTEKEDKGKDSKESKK
As to the kind of experiment: FRET assay, human Nav1.7 channels (CHO, EFS on FDSS). Conditions: read-out: activity (IC50) against Nav1.7. As for the experimental part: as §1, §2
CHO cells expressing human Nav1.7 channels are grown in T225 flasks, in a 5% CO2 humidified incubator to about 80% confluence. Media composition consists of HAM/F12 with Glutamax I, 10% FCS, 100 units/mL Penicillin and 100 microgram/mL Hygromycin. […]
as §4, §5

In assay [4] the target is T4, human Nav1.5 (Homo sapiens, UniProt Q14524).
T4 construct: expressed in transfected cells; host or cells: HEK293
As to the kind of experiment: FRET assay, human Nav1.5 channels (HEK293, EFS on FDSS). Particulars: read-out: activity (IC50) against Nav1.5. As for the experimental part: as §1, §2, §3, §4, §5

T1 sequence (Q15858 whole entry): as above

`CC(=O)Nc1cc(C(C)NC(=O)c2ccc(OCC(F)(F)F)cn2)cc(C)n1` (single isomer, unassigned) [Example 29, N-(1-(2-acetamido-6-methylpyridin-4-yl)ethyl)-5-(2,2,2-trifluoroethoxy) picolinamide]: the Ki in assay [1] stood at 950 nM.

For `CCC(=O)Nc1cc(CNC(=O)c2ccc(OCC(F)(F)F)nc2)cc(C)n1` [Example 12, N-((2-methyl-6-propionamidopyridin-4-yl)methyl)-6-(2,2,2-trifluoroethoxy) nicotinamide], the results for the 50% inhibitory concentration (IC50) in assay [2], in assay [3] and in assay [4] were 510 nM, 1000 nM and > 30000 nM, respectively.

Source of the values: patent US9701658B2, “Amide derivatives as TTX-S blockers” (RaQualia Pharma Inc., priority 2012, dated 2017).
